Measured values reported in ChEMBL document CHEMBL4402592, “Targeting Endoplasmic Reticulum α-Glucosidase I with a Single-Dose Iminosugar Treatment Protects against Lethal Influenza and Dengue Virus Infections” (J Med Chem, 2020).
Active and inactive are the calls of the source. The rule behind the calls is not given here.

Test system: Influenza A virus
Experiment: Antiviral activity against Influenza A virus (A/PA/10/2010 (H3N2)) infected in BALB/c mouse assessed as increase in animal survival rate at 10 mg/kg, po administered via gavage starting at 8 hrs post infection and continuing BID for 6 days
Assay type: functional, organism-based

Compound: CCOC(=O)C1=C[C@@H](OC(CC)CC)[C@H](NC(C)=O)[C@@H](N)C1
- Activity: Active
